Numbered stars: 1 amine (or outer) side, 2 acyl side, 3 side chain; on linkers, the order of the positions; unused ones are H or OH. Square brackets hold non-standard residues; d marks the D form. Side chains are listed from the residue outwards. Peptide text beside a SMILES is read from it. * marks the point of attachment. Propanoyl(3-(1-naphthyl)) = O=C(CCc1cccc2ccccc12)*; Indole2carbonyl(5-F) = O=C(c1cc2cc(F)ccc2[nH]1)*; Propanoyl(3,3-Ph2) = O=C(CC(c1ccccc1)c1ccccc1)*; Propanoyl(3-(4-F-phenyl)) = O=C(CCc1ccc(F)cc1)*; Phenylacetyl(4-Cl) = O=C(Cc1ccc(Cl)cc1)*; dPhe(4-Cl) = N[C@H](Cc1ccc(Cl)cc1)C(=O)O; 1Nal = N[C@@H](Cc1cccc2ccccc12)C(=O)O; Desaminotyrosyl = O=C(CCc1ccc(O)cc1)*; d1Nal = N[C@H](Cc1cccc2ccccc12)C(=O)O; dLys(iPr) = CC(C)NCCCC[C@@H](N)C(=O)O; Lys(iPr) = CC(C)NCCCC[C@H](N)C(=O)O; NMeY = CN[C@@H](Cc1ccc(O)cc1)C(=O)O; dBta = N[C@H](Cc1csc2ccccc12)C(=O)O; NMeF = CN[C@@H](Cc1ccccc1)C(=O)O; d3Pal = N[C@H](Cc1cccnc1)C(=O)O; d2Thi = N[C@H](Cc1cccs1)C(=O)O; NHPhenethyl = c1ccc(CCN*)cc1; Nicotinoyl = O=C(c1cccnc1)*; dOrn = NCCC[C@@H](N)C(=O)O; Morpholide = C1CN(*)CCO1; X15 = O=C(Cc1ccc(O)cc1)*; CO = O=C([*:1])[*:2]

The text below walks through data of patent US5140009A (Tap Pharmaceuticals, Inc., priority 1990, dated 1992).

One experiment addresses T1, LHRH receptors (Rattus norvegicus, UniProt P30969).
T1 construct: Pituitary membranes containing LHRH receptors are prepared in batches from quick-frozen rat pituitaries; tissue Hilltop Labs; host or cells: rat pituitary membranes
T1 sequence (P30969 1-327): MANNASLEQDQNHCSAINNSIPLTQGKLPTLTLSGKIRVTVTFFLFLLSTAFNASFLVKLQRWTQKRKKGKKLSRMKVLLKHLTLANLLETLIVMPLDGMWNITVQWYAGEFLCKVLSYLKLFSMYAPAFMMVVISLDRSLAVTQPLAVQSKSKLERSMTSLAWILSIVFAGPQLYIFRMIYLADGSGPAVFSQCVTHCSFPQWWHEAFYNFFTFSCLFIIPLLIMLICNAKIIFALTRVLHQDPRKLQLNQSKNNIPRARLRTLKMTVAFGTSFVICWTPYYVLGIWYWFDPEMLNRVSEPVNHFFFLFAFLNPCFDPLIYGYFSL
As to the kind of experiment: Receptor Binding (radioligand receptor binding assay). The conditions noted are these: Receptor Binding pkI, table 3; rat pituitary membranes, radioiodinated [D-Leu^6 -des Gly^10 ]-LHRH ethyl amide 50 pM, 2 hours at 4° C.
`CCNC(=O)[C@@H]1CCCN1C(=O)[C@H](CCCNC(=N)N)NC(=O)[C@H](CC(C)C)NC(=O)[C@@H](Cc1c[nH]c2ccccc12)NC(=O)[C@H](Cc1ccc(O)cc1)NC(=O)[C@H](CO)NC(=O)CC(c1ccccc1)c1ccccc1` [Compound 14, (4-9)[N-(3-Diphenylpropionyl)-Ser^4 -D-Trp^6 -Pro^9 -NHEt]LHRH] ({Propanoyl(3,3-Ph2)}-SY[dW]LRP-NHEt) gave a Ki of 15.8 nM.

The same experiment, now with this note: table 3; rat pituitary membranes, radioiodinated [D-Leu^6 -des Gly^10 ]-LHRH ethyl amide 50 pM, 2 hours at 4° C.; read-out: Receptor Binding pkI (converted).
Take `CCNC(=O)[C@@H]1CCCN1C(=O)[C@H](CCCNC(=N)N)NC(=O)[C@H](CC(C)C)NC(=O)[C@@H](Cc1c[nH]c2ccccc12)NC(=O)[C@H](Cc1ccc(O)cc1)NC(=O)[C@H](CO)NC(=O)[C@H](Cc1cccc2ccccc12)NC(=O)N1CCOCC1` [Compound 137, N-(N-alpha-Morpholinocarbonyl)-1-Nal-Ser-Tyr-D-Trp-Leu -Arg-ProNHEt] ({Morpholide-CO}-[1Nal]SY[dW]LRP-NHEt): the Ki is 0.263 nM. On the same count and under the same terms, as for `CCNC(=O)[C@@H]1CCCN1C(=O)[C@H](CCCNC(=N)N)NC(=O)[C@H](CC(C)C)NC(=O)[C@@H](CCCNC(=N)N)NC(=O)[C@H](Cc1ccc(O)cc1)NC(=O)[C@H](CO)NC(=O)CCc1cccc2ccccc12` [Compound 44, (4-9)[N-(3-(1-Naphthyl)propionyl)-Ser^4 -D-Arg^6 -Pro^9 -NHEt]LHRH] ({Propanoyl(3-(1-naphthyl))}-SY[dR]LRP-NHEt), the figure is 3.98 nM. On the same count and under the same terms, then `CCNC(=O)[C@@H]1CCCN1C(=O)[C@H](CCCNC(=N)N)NC(=O)[C@H](CC(C)C)NC(=O)[C@@H](Cc1c[nH]c2ccccc12)NC(=O)[C@H](Cc1ccc(O)cc1)NC(=O)[C@H](CO)NC(=O)[C@H](Cc1c[nH]c2ccccc12)NC(=O)Cc1ccc(Cl)cc1` [Compound 104, (3-9)[N-(4-Chlorophenyl)acetyl-Trp^3 -D-Trp^6 -Pro^9 NHEt]LHRH] ({Phenylacetyl(4-Cl)}-WSY[dW]LRP-NHEt), with 0.832 nM. The same measure, in the same setting: as for `CCNC(=O)[C@@H]1CCCN1C(=O)[C@H](CCCNC(=N)N)NC(=O)[C@H](CC(C)C)NC(=O)[C@@H](Cc1c[nH]c2ccccc12)NC(=O)[C@H](Cc1ccc(O)cc1)NC(=O)[C@H](CO)NC(=O)[C@@H](Cc1c[nH]c2ccccc12)NC(=O)c1cc2cc(F)ccc2[nH]1` [Compound 102, (3-9)[N-(5-Fluoro-2-indolecarbonyl)-D -Trp^3,6 -Pro^9 -NHEt]LHRH] ({Indole2carbonyl(5-F)}-[dW]SY[dW]LRP-NHEt), the figure is 17.4 nM; as for `CCNC(=O)[C@@H]1CCCN1C(=O)[C@H](CCCNC(=N)N)NC(=O)[C@H](CC(C)C)NC(=O)[C@@H](Cc1c[nH]c2ccccc12)NC(=O)[C@H](Cc1ccc(O)cc1)NC(=O)[C@H](CO)NC(=O)CCc1ccc(O)cc1` [Compound 76, (4-9)[N-(3-(4-Hydroxyphenyl)propionyl) -Ser^4 -D-Trp^6 -Pro^9 NHEt]LHRH] (Desaminotyrosyl-SY[dW]LRP-NHEt), 43.7 nM; as for `CCNC(=O)[C@@H]1CCCN1C(=O)[C@H](CCCNC(=N)N)NC(=O)[C@H](CC(C)C)NC(=O)[C@@H](Cc1c[nH]c2ccccc12)NC(=O)[C@H](Cc1ccc(O)cc1)NC(=O)[C@H](CO)NC(=O)[C@H](Cc1c[nH]c2ccccc12)NC(=O)[C@H](Cc1ccccc1)NC(=O)NCCc1ccccc1` [Compound 124, (2-9)[N-(N-alpha-Phenethylaminocarbonyl)-Phe^2 -D-Trp^6 -Pro^9 NHEt]LHRH] ({NHPhenethyl-CO}-FWSY[dW]LRP-NHEt), 0.347 nM. As to `CCNC(=O)[C@@H]1CCCN1C(=O)[C@H](CCCNC(=N)N)NC(=O)[C@H](CC(C)C)NC(=O)[C@@H](CCCCNC(=O)c1cccnc1)NC(=O)[C@H](Cc1ccc(O)cc1)NC(=O)[C@H](CO)NC(=O)[C@H](Cc1c[nH]c2ccccc12)NC(=O)[C@H](Cc1ccccc1)NC(=O)N1CCOCC1` [Compound 117, N-(N-alpha-Morpholinocarbonyl)-Phe-Trp-Ser-Tyr-D-Lys(Nic) -Leu-Arg-ProNHEt] ({Morpholide-CO}-FWSY[dK](Nicotinoyl)LRP-NHEt), the Ki is 1.86 nM. On the same count and under the same terms, as for `CCNC(=O)[C@@H]1CCCN1C(=O)[C@H](CCCN=C(N)N)NC(=O)[C@H](CC(C)C)NC(=O)[C@@H](Cc1c[nH]c2ccccc12)NC(=O)[C@H](Cc1ccc(O)cc1)NC(=O)[C@H](CO)NC(=O)[C@H](Cc1c[nH]c2ccccc12)NC(=O)Cc1ccc(O)cc1` [Compound 105, (3-9)[N-(4-Hydroxyphenyl)acetyl-Trp^3 -D -Trp^6 -Pro^9 NHEt]LHRH] (X15-WSY[dW]LRP-NHEt), the figure is 0.562 nM.

Still in this experiment, the particulars now being: table 4; rat pituitary membranes, radioligand 50 pM, 2 hours at 4° C.; read-out: Receptor Binding pkI (converted).
`CCNC(=O)[C@@H]1CCCN1C(=O)[C@H](CCCNC(=N)N)NC(=O)[C@H](CC(C)C)NC(=O)[C@@H](Cc1c[nH]c2ccccc12)NC(=O)[C@H](Cc1ccc(O)cc1)NC(=O)[C@H](CO)NC(=O)[C@@H](Cc1ccc(Cl)cc1)NC(=O)CCc1ccc(F)cc1` [Compound 140, (3-9) [N-(3-(4-Fluorophenyl)propionyl) -D-4-Cl-Phe^3 -D-Trp^6 -Pro^9 NHEt]LHRH] ({Propanoyl(3-(4-F-phenyl))}-[dPhe(4-Cl)]SY[dW]LRP-NHEt): the Ki was 0.0891 nM.

As to `CC(C)C[C@H](NC(=O)[C@@H](CCCCNC(=O)c1cccnc1)NC(=O)[C@H](Cc1ccc(O)cc1)N(C)C(=O)[C@H](CO)NC(=O)[C@@H](Cc1cccs1)NC(=O)CCc1ccc(F)cc1)C(=O)N[C@@H](CCCNC(=N)N)C(=O)N1CCC[C@H]1C(=O)N[C@H](C)C(N)=O` [Compound 161, N-[3-(4-Fluorophenyl)propionyl]-D-Thia-Ser-NMeTyr-D -Lys(N-epsilon-nicotinyl)-Leu-Arg-Pro-D-AlaNH2] ({Propanoyl(3-(4-F-phenyl))}-[d2Thi]S[NMeY][dK](Nicotinoyl)LRP[dA]-NH2), the Ki is 0.0151 nM. On the same count and under the same terms, then `CC(C)C[C@H](NC(=O)[C@@H](CCCCNC(=O)N1CCOCC1)NC(=O)[C@H](Cc1ccc(O)cc1)N(C)C(=O)[C@H](CO)NC(=O)[C@@H](Cc1cccc2ccccc12)NC(=O)CCc1ccc(F)cc1)C(=O)N[C@@H](CCCCNC(C)C)C(=O)N1CCC[C@H]1C(=O)N[C@H](C)C(N)=O` [Compound 213, N-(3-(4-Fluorophenyl)propionyl)-D-1-Nal-Ser-NMeTyr-D-Lys(N-epsilon-morpholnecarbonyl)-Leu-Lys(N-epsilon-isopropyl)-Pro-D-AlaNH2] ({Propanoyl(3-(4-F-phenyl))}-[d1Nal]S[NMeY][dK]([CO-Morpholide])L[Lys(iPr)]P[dA]-NH2), with 0.0148 nM. For `CC(C)C[C@H](NC(=O)[C@@H](CCCCNC(C)C)NC(=O)[C@H](Cc1ccc(O)cc1)N(C)C(=O)[C@H](CO)NC(=O)[C@@H](Cc1csc2ccccc12)NC(=O)CCc1ccc(F)cc1)C(=O)N[C@@H](CCCNC(=N)N)C(=O)N1CCC[C@H]1C(=O)N[C@H](C)C(N)=O` [Compound 198, (3-10)[N-(3-(4-Fluorophenyl)propionyl)-D-3-Bal^3 -NMeTyr^5 -D-Lys^6 (N-epsilon-isopropyl)-D-Ala^10]LHRH] ({Propanoyl(3-(4-F-phenyl))}-[dBta]S[NMeY][dLys(iPr)]LRP[dA]-NH2), the Ki was 0.00933 nM.

Regarding `CCNC(=O)[C@@H]1CCCN1C(=O)[C@H](CCCNC(=N)N)NC(=O)[C@H](CC(C)C)NC(=O)[C@@H](Cc1ccc(Cl)cc1)NC(=O)[C@H](Cc1ccc(O)cc1)NC(=O)[C@H](CO)NC(=O)[C@@H](Cc1c[nH]c2ccccc12)NC(=O)CCc1ccc(F)cc1` [Compound 149, (3-9)[N-(3-(4-Fluorophenyl)propionyl) -D-Trp3-D-4-Cl-Phe^6 -Pro^9 NHEt]LHRH] ({Propanoyl(3-(4-F-phenyl))}-[dW]SY[dPhe(4-Cl)]LRP-NHEt), the Ki was 0.0295 nM.

Turning to `CC(C)C[C@H](NC(=O)[C@@H](CCCN)NC(=O)[C@H](Cc1ccc(O)cc1)N(C)C(=O)[C@H](CO)NC(=O)[C@@H](Cc1cccc2ccccc12)NC(=O)CCc1ccc(F)cc1)C(=O)N[C@@H](CCCNC(=N)N)C(=O)N1CCC[C@H]1C(=O)N[C@H](C)C(N)=O` [Compound 192, (3-10)[N-(3-(4-Fluorophenyl)propionyl)-D-1-Nal^3 -NMeTyr^5 -D-Orn^6 -D-Ala^10]LHRH] ({Propanoyl(3-(4-F-phenyl))}-[d1Nal]S[NMeY][dOrn]LRP[dA]-NH2), the Ki was 0.00676 nM. The same measure, in the same setting: then `CC(C)C[C@H](NC(=O)[C@@H](CCCCNC(=O)c1cccnc1)NC(=O)[C@H](Cc1ccccc1)N(C)C(=O)[C@H](CO)NC(=O)[C@@H](Cc1cccc2ccccc12)NC(=O)CCc1ccc(F)cc1)C(=O)N[C@@H](CCCCNC(C)C)C(=O)N1CCC[C@H]1C(=O)N[C@H](C)C(N)=O` [Compound 205, (3-10)[N-(3-(4-Fluorophenyl)propionyl)-D-1-Nal^3 -NMePhe^5 -D-Lys^6 (N-epsilon-nicotinyl)-D-Ala^10]LHRH] ({Propanoyl(3-(4-F-phenyl))}-[d1Nal]S[NMeF][dK](Nicotinoyl)L[Lys(iPr)]P[dA]-NH2), with 0.0302 nM; and `CC(C)C[C@H](NC(=O)[C@@H](CCCCNC(=O)c1cccnc1)NC(=O)[C@H](Cc1ccc(O)cc1)N(C)C(=O)[C@H](CO)NC(=O)[C@@H](Cc1cccnc1)NC(=O)CCc1ccc(F)cc1)C(=O)N[C@@H](CCCNC(=N)N)C(=O)N1CCC[C@H]1C(=O)N[C@H](C)C(N)=O` [Compound 171] ({Propanoyl(3-(4-F-phenyl))}-[d3Pal]S[NMeY][dK](Nicotinoyl)LRP[dA]-NH2), with 0.0676 nM.
